Measurements from US20150094260A1, “BUFFERED OPHTHALMIC COMPOSITIONS AND METHODS OF USE THEREOF” (ARAVA BIO-TECH LTD., priority 2010, published 2015).
“Also recorded” adds a separate entry of the source. Ends that are not written are not given here. * marks the point of attachment. Myristoyl = CCCCCCCCCCCCCC(=O)*

Assays:
corneal wound in mice = test: Alkali burning of mouse corneas with Silver Nitrate applicators; assay type: in vivo; conditions: 1 μg/ml; for wound healing compared to control (Formula 1): 3 times daily for 3 or 7 days; for inflammatory cells (lymphocytes) infiltration into the wound area / neutrophils recruitment to the corneal wound gap / pathological angiogenesis in corneal wound area / corneal re-epithelialization (wounds with full epidermal closure at 7 days post wounding) / pathological corneal swelling: three daily instillations, Formula 1 as control; for inflammatory cells (lymphocytes) infiltration into the wound area / neutrophils recruitment to the corneal wound gap / pathological angiogenesis in corneal wound area / pathological corneal swelling: 3 days; for inflammatory cells (lymphocytes) infiltration into the wound area: FIG. 31; for neutrophils recruitment to the corneal wound gap: FIG. 32; for pathological angiogenesis in corneal wound area: FIG. 33; for corneal re-epithelialization (wounds with full epidermal closure at 7 days post wounding): FIG. 30; for pathological corneal swelling: FIG. 34
Procedure: Mice were subjected to chemical alkali burn wounding (using Silver Nitrate applicators for 10 seconds). Eyes were treated by three daily ocular instillations of treatments during 7 successive days with DAP-1 1 μg/ml, DIP-1 1 μg/ml and EPIP-2 1 μg/ml or with Formula 1 as control. Percentage of wounds achieved full epidermal closure at 7 days post wounding.
FIG. 31 is a histogram showing that DAP-1 1 μg/ml and DIP-1 1 μg/ml reduce lymphocytes infiltration in corneal wound gap in mice. Mice were subjected to chemical alkali burn wounding (using Silver Nitrate applicators for 10 seconds). Eyes were treated by three daily ocular instillations of treatments during 3 successive days with DAP-1 1 μg/ml, DIP-1 1 μg/ml and EPIP-2 1 μg/ml or with Formula 1 as control. Histological H&E staining of the corneas wounded area was performed and lymphocytes infiltration was arbitrarily assessed.
FIG. 32 is a histogram showing that DAP-1 1 μg/ml and EPIP-2 1 μg/ml decrease neutrophils recruitment to the corneal wound gap in mice. Mice were subjected to chemical alkali burn wounding (using Silver Nitrate applicators for 10 seconds). Eyes were treated by three daily ocular instillations of treatments during 3 successive days with DAP-1 1 μg/ml, DIP-1 1 μg/ml and EPIP-2 1 μg/ml or with Formula 1 as control. Histological sections of […] were stained with specific neutrophil staining kit (according to manufacturer). Neutrophils were counted per fixed field ×200 and represented by arbitrary units.
Mice were subjected to chemical alkali burn wounding (using Silver Nitrate applicators for 10 seconds). Eyes were treated by three daily ocular instillations of treatments during 3 successive days with DAP-1 1 μg/ml, DIP-1 1 μg/ml and EPIP-2 1 μg/ml or with Formula 1 as control. Histological H&E staining of the corneas wounded area has been performed. Blood vessels in entire corneal area were assessed and the results are represented graphically in objective arbitrary units.
FIG. 34 is a histogram showing that DIP-1 1 μg/ml and EPIP-2 1 μg/ml decrease pathological swelling of wounded cornea in mice. Mice were subjected to chemical alkali burn wounding (using Silver Nitrate applicators for 10 seconds). Eyes were treated by three daily ocular instillations of treatments during 3 successive days with DAP-1 1 μg/ml, DIP-1 1 μg/ml and EPIP-2 1 μg/ml or with Formula 1 as control. Histological H&E staining of the corneas wounded area has been performed and corneal swelling was objectively assessed. The results are presented in arbitrary units. […]
In another experiment, Alkali burning of corneas was performed on anaesthetized mice using Silver Nitrate applicators (75% Silver nitrate, 25% Potassium nitrate, Grafco, GFCO Inc.) for 10 seconds. The eyes were irrigated immediately with 5 ml sterile saline. Eyes were treated 3 times daily for 3 or 7 days with DAP-1 1 μg/ml, DIP-1 1 μg/ml and EPIP-2 1 μg/ml or Formula 1 as control.

[1] = test system: rabbit eyes subject to mechanical corneal wounding; test: Mechanical corneal wounding in rabbit eyes, corneal erosion area by fluorescein staining; assay type: in vivo
Procedure: Mechanical Corneal Ulcer Formation: A 6 mm corneal trephine (Grieshaber, Switzerland), preset for 50 micrometer in depth and a miniblade were used under a surgical microscope, to perform a uniform central corneal epithelial erosions, 6 mm in diameter and 50 micrometer in depth.
Rabbits were subjected to mechanical corneal wounding following the protocol discussed above. Eyes were treated by two daily ocular instillations of treatments during 3 successive days. Fluorescein staining was used to measure the corneal erosion area at twelve hours intervals starting 24 hrs post wounding and up to 72 hrs.
In addition to the time to heal parameter which is routinely assessed in wound healing studies, several publications established the importance of a new parameter, 50% reduction in wound size to serve as a robust predictor of complete wound closure. […] Results were therefore analyzed as percentage of eyes with 50% closure or higher at 24 hr post wounding (FIG. 2).
Rabbits were subjected to mechanical corneal wounding as discussed in Example 1. Eyes were treated by two daily ocular instillations of treatments during 3 successive days. Fluorescein staining was used to measure the corneal erosion area at six hours intervals.
Additional experiments were conducted using varying dosages of active agent. Rabbits were subjected to mechanical corneal wounding as described above. Eyes were treated by two daily ocular instillations of treatments during 3 successive days with 0.1 or 0.5 μg/eye/treatment of MPDY-1 alone in HOB-10 (referred to as HO/05/09) or in BSS or in combination with insulin 0.1-0.5 μg/eye/treatment. Rabbits received a total of daily dose from 0.1 μg (1 μg/ml) and up to 2 μg (20 μg/ml). Fluorescein staining was used to measure the corneal erosion area at twelve hours intervals starting 24 hrs post wounding and up to 72 hr.
Rabbits were subjected to mechanical corneal wounding as described above. […]

[2] = test system: ICAM-1 expression on endothelial cells and keratinocytes; macrophages, neutrophiles and T-cells at inflammation site; test: Anti-inflammatory effect of MPDY-1 in various in-vitro, ex-vivo and in-vivo models
Text: This example discusses experiments showing the anti-inflammatory effect of MPDY-1.

Substance	wound healing compared to control (Formula 1) (corneal wound in mice)	inflammatory cells (lymphocytes) infiltration into the wound area (corneal wound in mice)	neutrophils recruitment to the corneal wound gap (corneal wound in mice)	pathological angiogenesis in corneal wound area (corneal wound in mice)	corneal re-epithelialization (wounds with full epidermal closure at 7 days post wounding) (corneal wound in mice)	pathological corneal swelling (corneal wound in mice)	eyes completely healed without ocular scarring (full closure) at 48 hr post wounding ([1]; 48 hr, MPDY-1 0.1 or 0.5 μg/eye/treatment, two daily instillations, FIG. 11) [%]	time within which all treated eyes reached full closure ([1]; post wounding, FIG. 11) [h]	closure of ocular injury at 24 h post wounding ([1]; versus Control (standard of care ocular buffer), two daily instillations, FIG. 9) [%]	ICAM-1 expression on endothelial cells and keratinocytes [2]	activation of macrophages at inflammation site [2]	macrophages, neutrophiles and T-cells infiltration into inflammation site [2]
H-Met-Arg-Ala-Ala-Glu-Ala-Ala-Ala-Ala-Glu-Pro-Met-OH (H-MRAAEAAAAEPM-OH) [DAP-1]	wound healing enhancement	excelled in reducing inflammatory cells infiltration into the wound area	more potent in decreasing specific neutrophils recruitment	reduce angiogenesis in corneal wound gap	promote re-epithelialization of corneal wound	–	–	–	–	–	–	–
H-Pro-Tyr-Ile-Ala-Leu-Asn-Val-Asp-OH (H-PYIALNVD-OH) [EPIP-2]	wound healing enhancement	–	more potent in decreasing specific neutrophils recruitment	reduce angiogenesis in corneal wound gap	promote re-epithelialization of corneal wound	normalization in pathological corneal swelling	–	–	–	–	–	–
MPDY-1: N-myristoylated peptide defined by SEQ ID NO: 2 (Phe-Ala-Arg-Lys-Gly-Ala-Leu-Arg-Gln), PKC-α inhibitor; tested in BSS (Myristoyl-FARKGALRQ)	–	–	–	–	–	–	30	≤ 72	60	attenuate ICAM-1 expression on endothelial cells and keratinocytes	attenuate activation of macrophages at inflammation site	inhibit macrophages, neutrophiles and T-cells infiltration into inflammation site
Myristoyl-Ser-Phe-Asn-Ser-Tyr-Glu-Leu-Gly-Ser-Leu-OH (Myristoyl-SFNSYELGSL-OH; SMILES CCCCCCCCCCCCCC(=O)N[C@@H](CO)C(=O)N[C@@H](Cc1ccccc1)C(=O)N[C@@H](CC(N)=O)C(=O)N[C@@H](CO)C(=O)N[C@@H](Cc1ccc(O)cc1)C(=O)N[C@@H](CCC(=O)O)C(=O)N[C@@H](CC(C)C)C(=O)NCC(=O)N[C@@H](CO)C(=O)N[C@@H](CC(C)C)C(=O)O) [DIP-1]	wound healing enhancement	excelled in reducing inflammatory cells infiltration into the wound area	–	reduce angiogenesis in corneal wound gap	more potent; also recorded: promote re-epithelialization of corneal wound	normalization in pathological corneal swelling	–	–	–	–	–	–
